Data on 2 molecules can be found in patent US20240024240A1 (priority 2020, published 2024).

This series can be described thus: Sonication of magnesium oxide nanopowder with different ligands (functionalization, dispersion). It counts as physicochemical. The procedure:
Different capping ligands were selected for the functionalization of magnesium oxide nanoparticles (see FIG. 5). This method is applicable to ligands whose anchoring groups forms stable magnesium complexes such as catecholates, salicylates, phosphates and phosphonates. Even if the affinity of each individual group for the particle surface is low, the multiplicity of anchoring groups provides a strong adsorption. For example, poly-aspartic and poly-glutamic acids were tested for the functionalization of magnesium oxide nanoparticles. In this procedure, the capping ligands were sonicated with the nanoparticles until a complete dispersion was obtained. The stability of the dispersion was evaluated by the absorption spectra of the obtained mixture.
As a starting point for the optimization of the procedure, the magnesium oxide nanoparticles (200 mg) were dispersed in 25 mL of 1% capping agent with continuous stirring at different times. The concentration of nanoparticles and capping agent in the dispersion mixture together with the incubation temperature was optimized to increase the stability of the dispersed nanoparticles. The excess of capping agent was removed by centrifugation and washing with water. […]

Regarding `NCCP(=O)(O)O` [2-aminoethylphosphonic acid], the “effect of ligand on magnesium oxide nanomaterial on sonication” value (magnesium oxide nanopowder sonicated in the presence of the ligand) is recorded as “dissolved the nanomaterial”.

Consider `NCCCC(O)(P(=O)(O)O)P(=O)(O)O` [alendronate], for which the “dispersion of magnesium oxide nanomaterial with ligand” value (preliminary results, FIG. 7) was “good results”.
